Data from patent publication US20180237441A1, “Chemical Compounds” (GlaxoSmithKline Intellectual Property (No.2) Limited, priority 2015, published 2018).
pIC50: −log10 of the molar value.

Target: T1, PERK (Homo sapiens, UniProt Q9NZJ5)
T1 sequence (Q9NZJ5 30-1116): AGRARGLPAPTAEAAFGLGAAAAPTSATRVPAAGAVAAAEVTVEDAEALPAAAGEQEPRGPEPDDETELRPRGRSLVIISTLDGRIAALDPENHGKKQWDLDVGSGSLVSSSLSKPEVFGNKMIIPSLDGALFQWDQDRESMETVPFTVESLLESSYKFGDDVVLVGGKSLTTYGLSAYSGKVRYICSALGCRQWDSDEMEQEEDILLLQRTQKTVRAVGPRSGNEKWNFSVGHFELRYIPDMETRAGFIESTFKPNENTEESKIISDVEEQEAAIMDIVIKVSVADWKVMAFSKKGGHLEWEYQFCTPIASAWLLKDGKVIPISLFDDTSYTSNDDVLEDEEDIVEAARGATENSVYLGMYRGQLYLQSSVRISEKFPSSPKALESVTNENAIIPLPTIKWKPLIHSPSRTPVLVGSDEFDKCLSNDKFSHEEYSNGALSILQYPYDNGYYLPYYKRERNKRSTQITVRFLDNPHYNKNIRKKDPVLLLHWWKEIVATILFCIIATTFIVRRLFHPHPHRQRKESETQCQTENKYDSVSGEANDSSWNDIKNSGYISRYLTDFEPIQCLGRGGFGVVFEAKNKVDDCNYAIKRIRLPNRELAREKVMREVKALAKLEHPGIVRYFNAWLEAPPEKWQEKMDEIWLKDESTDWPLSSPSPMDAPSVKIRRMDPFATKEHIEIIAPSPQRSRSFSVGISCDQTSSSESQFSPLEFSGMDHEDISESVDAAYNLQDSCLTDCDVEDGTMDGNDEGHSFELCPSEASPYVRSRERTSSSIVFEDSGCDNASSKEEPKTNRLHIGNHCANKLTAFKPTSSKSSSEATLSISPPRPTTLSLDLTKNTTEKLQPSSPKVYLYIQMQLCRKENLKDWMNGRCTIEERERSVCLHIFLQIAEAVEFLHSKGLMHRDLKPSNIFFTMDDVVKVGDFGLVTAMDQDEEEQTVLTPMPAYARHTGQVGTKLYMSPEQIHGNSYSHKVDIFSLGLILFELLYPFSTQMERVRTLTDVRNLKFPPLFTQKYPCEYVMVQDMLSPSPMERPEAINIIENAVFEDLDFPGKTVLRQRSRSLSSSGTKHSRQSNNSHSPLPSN
Assay: PERK enzyme assay (HTRF)
Format: biochemical
Details: 500 μM ATP; at least one experimental run; read-out: PERK Enzyme (500 μM ATP) IC50
Summary of the method: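 GST-PERK (0.75 nM final) pre-incubated 30–60 min with compound (≤1% DMSO) in HEPES pH 7.5/CHAPS/MgCl2/DTT, then 500 μM ATP and 40 nM biotin-eIF2α added for 60 min. EDTA quench; HTRF detection of phospho-eIF2α (Eu anti-rabbit/streptavidin-APC) read after 2 h; IC50 from concentration series.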

pIC50	SMILES
6.45	CC(C)n1cc(-c2ccc(N3CC(c4ccc(F)cc4F)N(C)C3=O)cc2F)c2c(N)ncnc21 (centres unmarked) [Example 92, 1-(4-(4-amino-7-isopropyl-7H-pyrrolo[2,3-d]pyrimidin-5-yl)-3-fluorophenyl)-4-(2,4-difluorophenyl)-3-methylimidazolidin-2-one]
5.70	CN1C(=O)N(c2ccc(-c3cn(C)c4ncnc(N)c34)c(F)c2)CC1c1ccncc1 (centres unmarked) [Example 110, 1-(4-(4-amino-7-methyl-7H-pyrrolo[2,3-d]pyrimidin-5-yl)-3-fluorophenyl)-3-methyl-4-(pyridin-4-yl)imidazolidin-2-one]

Same assay, conditions: PERK Enzyme (500 μM ATP) IC50; at least one experimental run; read-out: PERK Activity

pIC50	SMILES
6.00 to 7.00	CN1C(=O)N(c2ccc(-c3cn(C)c4ncnc(N)c34)c(F)c2)CC1c1cccc(F)c1F (centres unmarked) [Example 74, 1-(4-(4-amino-7-methyl-7H-pyrrolo[2,3-d]pyrimidin-5-yl)-3-fluorophenyl)-4-(2,3-difluorophenyl)-3-methylimidazolidin-2-one]
> 7.00	Cn1cc(-c2ccc(N3CC(c4ccc(F)cc4F)N(CC(F)(F)F)C3=O)cc2F)c2c(N)ncnc21 (centres unmarked) [Example 79, 1-(4-(4-amino-7-methyl-7H-pyrrolo[2,3-d]pyrimidin-5-yl)-3-fluorophenyl)-4-(2,4-difluorophenyl)-3-(2,2,2-trifluoroethyl)imidazolidin-2-one]
6.00 to 7.00	CN1C(=O)N(c2ccc(-c3cn(CC(F)(F)F)c4ncnc(N)c34)c(F)c2)CC1c1ccc(F)cc1F (centres unmarked) [Example 82, 1-(4-(4-amino-7-(2,2,2-trifluoroethyl)-7H-pyrrolo[2,3-d]pyrimidin-5-yl)-3-fluorophenyl)-4-(2,4-difluorophenyl)-3-methylimidazolidin-2-one]
6.00 to 7.00	CC(C)n1cc(-c2ccc(N3CC(c4ccc(F)cc4F)N(C)C3=O)cc2F)c2c(N)ncnc21 (centres unmarked) [Example 92, 1-(4-(4-amino-7-isopropyl-7H-pyrrolo[2,3-d]pyrimidin-5-yl)-3-fluorophenyl)-4-(2,4-difluorophenyl)-3-methylimidazolidin-2-one]
6.00 to 7.00	Cc1c(-c2ccc(N3CC(c4ccc(F)cc4F)N(C)C3=O)cc2F)c2c(N)ncnc2n1C (centres unmarked) [Example 94, 1-(4-(4-amino-6,7-dimethyl-7H-pyrrolo[2,3-d]pyrimidin-5-yl)-3-fluorophenyl)-4-(2,4-difluorophenyl)-3-methylimidazolidin-2-one]
> 7.00	CN1C(=O)N(c2ccc(-c3nn(C)c4ncnc(N)c34)c(F)c2)CC1c1ccc(F)cc1F (centres unmarked) [Example 99, 1-(4-(4-amino-1-methyl-1H-pyrazolo[3,4-d]pyrimidin-3-yl)-3-fluorophenyl)-4-(2,4-difluorophenyl)-3-methylimidazolidin-2-one]
> 7.00	CCN1C(=O)N(c2ccc(-c3cn(C4CC4)c4ncnc(N)c34)c(F)c2)CC1c1ccc(F)cc1F (centres unmarked) [Example 107, 1-(4-(4-amino-7-cyclopropyl-7H-pyrrolo[2,3-d]pyrimidin-5-yl)-3-fluorophenyl)-4-(2,4-difluorophenyl)-3-ethylimidazolidin-2-one]
> 7.00	CN1C(=O)N(c2ccc(-c3cn(C4CC4)c4ncnc(N)c34)c(F)c2)CC1c1ccc(F)cc1F (centres unmarked) [Example 108, 1-(4-(4-amino-7-cyclopropyl-7H-pyrrolo[2,3-d]pyrimidin-5-yl)-3-fluorophenyl)-4-(2,4-difluorophenyl)-3-methylimidazolidin-2-one]
> 7.00	CCn1cc(-c2ccc(N3CC(c4ccc(F)cc4F)N(C)C3=O)cc2F)c2c(N)nc(C)nc21 (centres unmarked) [Example 109, 1-(4-(4-amino-7-ethyl-2-methyl-7H-pyrrolo[2,3-d]pyrimidin-5-yl)-3-fluorophenyl)-4-(2,4-difluorophenyl)-3-methylimidazolidin-2-one]

More lines, now with the values behind:

SMILES	pIC50
CCN1C(=O)N(c2ccc(-c3cn(C)c4ncnc(N)c34)c(F)c2)CC1c1cccc(F)c1F (centres unmarked) [Example 75, 1-(4-(4-amino-7-methyl-7H-pyrrolo[2,3-d]pyrimidin-5-yl)-3-fluorophenyl)-4-(2,3-difluorophenyl)-3-ethylimidazolidin-2-one]	6.00 to 7.00
Cc1nc(N)c2c(-c3ccc(N4CC(c5ccc(F)c(F)c5)N(C)C4=O)cc3F)cn(C)c2n1 (centres unmarked) [Example 78, 1-(4-(4-amino-2,7-dimethyl-7H-pyrrolo[2,3-d]pyrimidin-5-yl)-3-fluorophenyl)-4-(3,4-difluorophenyl)-3-methylimidazolidin-2-one]	> 7.00
CN1C(=O)N(c2ccc(-c3cn(C)c4ncnc(N)c34)c(F)c2)CC1c1c(F)cccc1F (centres unmarked) [Example 81, 1-(4-(4-amino-7-methyl-7H-pyrrolo[2,3-d]pyrimidin-5-yl)-3-fluorophenyl)-4-(2,6-difluorophenyl)-3-methylimidazolidin-2-one]	> 7.00
CN1C(=O)N(c2ccc(-c3cn(C)c4ncnc(N)c34)c(F)c2)CC1c1cc(F)cc(C(F)(F)F)c1 (centres unmarked) [Example 84, 1-(4-(4-amino-7-methyl-7H-pyrrolo[2,3-d]pyrimidin-5-yl)-3-fluorophenyl)-4-(3-fluoro-5-(trifluoromethyl)phenyl)-3-methylimidazolidin-2-one]	6.00 to 7.00
CCN1C(=O)N(c2ccc(-c3cn(C)c4ncnc(N)c34)c(F)c2)CC1c1cc(F)cc(C(F)(F)F)c1 (centres unmarked) [Example 85, 1-(4-(4-amino-7-methyl-7H-pyrrolo[2,3-d]pyrimidin-5-yl)-3-fluorophenyl)-3-ethyl-4-(3-fluoro-5-(trifluoromethyl)phenyl)imidazolidin-2-one]	6.00 to 7.00
Cc1nc(N)c2c(-c3ccc(N4CC(c5ccc(F)cc5)N(C)C4=O)cc3F)cn(C3CC3)c2n1 (centres unmarked) [Example 91, 1-(4-(4-amino-7-cyclopropyl-2-methyl-7H-pyrrolo[2,3-d]pyrimidin-5-yl)-3-fluorophenyl)-4-(4-fluorophenyl)-3-methylimidazolidin-2-one]	> 7.00
CCN1C(=O)N(c2ccc(-c3c(C)n(C)c4ncnc(N)c34)c(F)c2)CC1c1ccc(F)cc1F (centres unmarked) [Example 93, 1-(4-(4-amino-6,7-dimethyl-7H-pyrrolo[2,3-d]pyrimidin-5-yl)-3-fluorophenyl)-4-(2,4-difluorophenyl)-3-ethylimidazolidin-2-one]	6.00 to 7.00
CN1C(=O)N(c2ccc(-c3cn(C)c4ncnc(N)c34)c(F)c2)CC1c1ccc(F)c(F)c1 (centres unmarked) [Example 96, 1-(4-(4-amino-7-methyl-7H-pyrrolo[2,3-d]pyrimidin-5-yl)-3-fluorophenyl)-4-(3,4-difluorophenyl)-3-methylimidazolidin-2-one]	> 7.00
CCN1C(=O)N(c2ccc(-c3cn(C)c4ncnc(N)c34)c(F)c2)CC1c1ccc(F)c(F)c1 (centres unmarked) [Example 97, 1-(4-(4-amino-7-methyl-7H-pyrrolo[2,3-d]pyrimidin-5-yl)-3-fluorophenyl)-4-(3,4-difluorophenyl)-3-ethylimidazolidin-2-one]	> 7.00
CCN1C(=O)N(c2ccc(-c3nn(C)c4ncnc(N)c34)c(F)c2)CC1c1ccc(F)cc1F (centres unmarked) [Example 98, 1-(4-(4-amino-1-methyl-1H-pyrazolo[3,4-d]pyrimidin-3-yl)-3-fluorophenyl)-4-(2,4-difluorophenyl)-3-ethylimidazolidin-2-one]	6.00 to 7.00
COc1cccc(C2CN(c3ccc(-c4cn(C)c5ncnc(N)c45)c(F)c3)C(=O)N2C)c1 (centres unmarked) [Example 102, 1-(4-(4-amino-7-methyl-7H-pyrrolo[2,3-d]pyrimidin-5-yl)-3-fluorophenyl)-4-(3-methoxyphenyl)-3-methylimidazolidin-2-one]	6.00 to 7.00
Cc1nc(N)c2c(-c3c(F)cc(N4CC(c5ccc(F)cc5F)N(C)C4=O)cc3F)cn(C)c2n1 (centres unmarked) [Example 105, 1-(4-(4-amino-2,7-dimethyl-7H-pyrrolo[2,3-d]pyrimidin-5-yl)-3,5-difluorophenyl)-4-(2,4-difluorophenyl)-3-methylimidazolidin-2-one]	6.00 to 7.00
CCN1C(=O)N(c2ccc(-c3cn(C(C)C)c4ncnc(N)c34)c(F)c2)CC1c1cc(F)ccc1F (centres unmarked) [Example 106, 1-(4-(4-amino-7-isopropyl-7H-pyrrolo[2,3-d]pyrimidin-5-yl)-3-fluorophenyl)-4-(2,5-difluorophenyl)-3-ethylimidazolidin-2-one]	6.00 to 7.00
CN1C(=O)N(c2ccc(-c3cn(C)c4ncnc(N)c34)c(F)c2)CC1c1ccncc1 (centres unmarked) [Example 110, 1-(4-(4-amino-7-methyl-7H-pyrrolo[2,3-d]pyrimidin-5-yl)-3-fluorophenyl)-3-methyl-4-(pyridin-4-yl)imidazolidin-2-one]	< 6.00
Cc1nc(C2CN(c3ccc(-c4cn(C)c5ncnc(N)c45)c(F)c3)C(=O)N2C)ccc1F (centres unmarked) [Example 112, 1-(4-(4-amino-7-methyl-7H-pyrrolo[2,3-d]pyrimidin-5-yl)-3-fluorophenyl)-4-(5-fluoro-6-methylpyridin-2-yl)-3-methylimidazolidin-2-one]	6.00 to 7.00
